# Measurements taken from patent US20230193262A1, “Nucleic acid molecules capable of modulating target gene expression and uses thereof” (KOREA ADVANCED INSTITUTE OF SCIENCE AND TECHNOLOGY, priority 2021, published 2023).
# What was measured:
# cleaved PARP = experiment: Western blot of apoptotic marker cleaved PARP; assay type: cell-based; settings: blood cancer cell line HL-60
# Protocol: miRNA triggers were transfected into cells in the same manner as in Reference Example 4. After 72 hours, the cells were collected using a cell scraper and lysed with a RIPA buffer (NaCl 150 mM, EDTA 5 mM, Tris 50 mM, NP-40 1.0%, sodium deoxycholate 0.5%, SDS 0.1%). The cell lysate was sonicated 15 times, each for 20 sec, with a halt for 30 sec every sonication. Following centrifugation at 5,000 g for 5 min, the supernatant was taken and used to extract proteins therefrom. A total of 30-40 μg of protein sample was separated in 10-15% SDS-PAGE gel and transferred onto a PVDF membrane through a semi-dry blotting system. The membrane was blocked for 1 hour in 5% skimmed milk and incubated for 2 hours with a 1,000-fold dilution of a primary antibody in, 1% skimmed milk. […] The membrane incubated with the secondary antibody was washed three times with 1×PBST for 10 min each wash, and then reacted with Clarity Western ECL Substrate (#1705061, Bio-Rad), after which images were obtained and analyzed using ChemiDoc (Bio-rad, Hercules, USA). […]
# The cells transfected with the selected miRNA triggers were measured for protein expression levels of the target Bcl-xL and the apoptotic marker cleaved PARP through western blotting, and the results are depicted in FIG. 32b.
# [1] = test system: MCF-7 breast cancer cells; experiment: Cell viability / apoptosis in MCF-7; assay type: cell-based; settings: single siRNA, final concentration 60 nM
# Protocol: The miRNA triggers were assayed for cytotoxicity and apoptosis induction, using the CCK-8 (Cell Counting Kit-8) (Dojindo, Kumamoto, Japan) according to the manufacturer's instruction. Cells were incubated in 96-well plates (5×10^3 cells/well) at 37° C. for 24 hours under a 5% CO2 atmosphere, followed by transfection. Three days after transfection, the medium was removed. A 10-fold dilution of CCK-8 solution in DMEM was added to the cells which were then incubated at 37° C. for 2 hours. After incubation, absorbance was read at 450 nm on Tecan Infinite M200 pro microplate reader (Mnnedorf, Switzerland).
# An siRNA targeting bcl-2, bcl-xL, or mcl-1 was transfected into MCF-7 breast cancer cells and PANC-1 pancreatic cancer cells. By using qRT-PCR, establishment was made of a condition under which the expression of each target gene is decreased by 80% or more (transfection was performed at a concentration of 60 nM with the aid of Lipofectamine). As a negative control, a Luc (Luciferase)-targeting siRNA (siLuc) was used. Under the same condition of decreasing the expression of each target gene by 80% or more, the cells transfected with the siRNAs were measured for apoptosis, and the results are depicted in FIGS. 14a and 14b.
# Linear miRNA triggers that could bind to miR-141 or let7f and target bcl-xL or mcl-1 were prepared and transfected alone or in combination into the breast cancer cell line MCF-7 which was then measured for cell viability. Every nucleotide of the triggers and controls was chemically modified with 2′-OMe.
# First, MCF-7 was measured for cell viability after treatment with siMCL-1, siBCL-xL, and siBCL-2 (FIG. 48). […] The final concentration of the siRNAs was 60 nM.
# Next, examination was made of the apoptosis when two or more genes were regulated together. MCF-7 was measured for cell viability after treatment with siMCL-1+siBCL-xL, siMCL-1+siBCL-2, siBCL-xL+siBCL-2, and siMCL-1+siBCL-xL+siBCL-2 (FIG. 49).
# Finally, experiments under all the conditions (individual and simultaneous regulation) were conducted simultaneously so as to compare effects thereof. […]
substance,measurement,setting,value
"siBcl-2: siRNA targeting bcl-2; SEQ ID NO 62 (AUCAAUCUUCAGCACUCUC; listed as RNA, chemistry not given here)",expression of the apoptotic marker cleaved PARP,cleaved PARP,upregulated
same,apoptosis (cell viability),[1],apoptosis was detected
